In brackets after ≈: the same amount, converted by molar mass.

These results are taken from US20220273683A1, “BORON-CONTAINING SMALL MOLECULES” (Bill & Melinda Gates Foundation, priority 2016, published 2022).

Common to all, as to type: cell-based
Test [1] relates to Wolbachia pipientis in C6/36 cell line. Nature of the test: Anti-Wolbachia high-content assay. Conditions: C6/36 (wAlbB) cells, 7 days at 26° C., 50% reduction of Wolbachia. The source says:
C6/36 cells (ECACC #89051705, derived from Aedes albopictus larvae) were infected with Wolbachia pipientis derived from the supernatant of cultured A. albopictus Aa23 cells to create a stably Wolbachia-infected cell line C6/36 (wAlbB). This cell line was subpassaged 6-8 days prior to plating out at a density of 2000 viable cells per well in a 384-well CellCarrier plate suspended in Liebovitz media supplemented with 20% fetal bovine serum, 2% tryptose phosphate broth and 1% non-essential amino acids. Compounds were dissolved and diluted in DMSO, and compound solution was added to each well to provide a final DMSO concentration <1% and a total volume of 100 μL per well. Following 7 days of sterile incubation at 26° C., staining media containing SYTO 11 DNA dye was added to each well. After 15 minutes, all media was removed from each well and fresh media (no stain) was added. Imaging of each well was accomplished using a Perkin Elmer Operetta high-content imaging system. Five fields per well were imaged using a confocal 60× objective with the Fluorescein filter (excitation filter: 460-490 nm; emission filter: 500-550 nm). Images were analyzed using the Perkin Elmer Harmony software to score each intact cell on the basis of texture complexity of the cytoplasm. Full details can be found in: […]. Biomol. Screening, 2015, 20, […]. Compound sample wells were analyzed and normalized (along with the positive controls) against the vehicle (untreated) control to give a percentage reduction of Wolbachia-infected cells. Using the cell number analysis, compounds with a host cell number amounting to less than 50% of the vehicle control were classified as toxic and retested at a reduced compound concentration. Dose-response curves were generated with percentage reduction of Wolbachia-infected cells versus compound concentration, using 5-10 compound serial dilutions. Data were analyzed and compound EC50 is determined using a 4 parameter logistic nonlinear regression model.

Test [2] concerns Streptococcus pneumoniae (ATCC 49619). Nature of the test: Antibacterial MIC assay (microbroth dilution, CLSI). Conditions: 35° C., 16-20 hours; for MIC: Streptococcus pneumoniae, ATCC49619, 3% lysed horse blood; for MIC Streptococcus pneumoniae (ATCC 49619): 3% lysed horse blood. In short, it runs like this: (§1)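 Compound 2-fold dilution series tested against 5×10^5 CFU/mL bacteria prepared from 0.5 McFarland saline suspensions of overnight colonies. Medium was cation-adjusted Mueller-Hinton broth, supplemented with 3% lysed horse blood for the fastidious pneumococcus. Protocol followed CLSI M07-A10 and M100-S25.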
(Broth dilution looks for growth in wells or tubes with falling amounts of substance.)

Test [3] concerns Staphylococcus aureus, MRSA (ATCC 33591). The test is described as above. Conditions: 35° C., 16-20 hours; for MIC: Staphylococcus aureus. In a few lines: as §1

A word on the EC50: it is the concentration that produces a half-maximal response. Read a low EC50 as higher potency in that assay. As a reminder, the MIC is the smallest concentration in the dilution series that meets the test's criterion for growth inhibition. The compound `COC(=O)/C=C/[C@]1(C)C[C@@H](OC(=O)COc2ccc3c(c2F)B(O)OC3)[C@]2(C)[C@H](C)CC[C@]3(CCC(=O)[C@H]32)[C@@H](C)[C@@H]1O` [Compound 12, methyl (E)-3-((3aR,4R,5R,7S,8S,9R,9aS,12R)-5-(2-((7-fluoro-1-hydroxy-1,3-dihydrobenzo[c][1,2]oxaborol-6-yl)oxy)acetoxy)-8-hydroxy-4,7,9,12-tetramethyl-3-oxodecahydro-4,9a-propanocyclopenta[8]annulen-7-yl)acrylate] had a half-maximal effective concentration (EC50) in test [1] (Wolbachia pipientis) of 81 nM. In addition, the MIC in test [2] and in test [3] was under 0.25 µg/mL throughout.
In the case of `C[C@@H]1CC[C@@]23CCC(=O)[C@H]2[C@]1(C)[C@H](OC(=O)COc1ccc2c(c1F)B(O)OC2)C[C@@](C)(/C=C/C(=O)O)[C@@H](O)C3` [Compound 13, (E)-3-((3aR,4R,5R,7S,8S,9aS,12R)-5-(2-((7-fluoro-1-hydroxy-1,3-dihydrobenzo[c][1,2]oxaborol-6-yl)oxy)acetoxy)-8-hydroxy-4,7,12-trimethyl-3-oxodecahydro-4,9a-propanocyclopenta[8]annulen-7-yl)acrylic acid], the EC50 in test [1] (Wolbachia pipientis) was over 1000 nM. The MIC in test [2] was over 64 µg/mL; in test [3], 4 to 32 µg/mL (≈ 7.16 to 57.3 µM).
For `C[C@@H]1CC[C@@]23CCC(=O)[C@H]2[C@]1(C)[C@H](OC(=O)COc1ccc2c(c1F)B(O)OC2)C[C@@]1(C)CCC(=O)O[C@H]1[C@@H]3C` [Compound 1, (4aR,6R,7R,7aR,10aS,11R,11aS,14R)-4a,7,11,14-tetramethyl-2,8-dioxododecahydro-2H-7,10a-propanocyclopenta[6,7]cycloocta[1,2-b]pyran-6-yl2-((7-fluoro-1-hydroxy-1,3-dihydrobenzo[c][1,2]oxaborol-6-yl)oxy)acetate], the concentration for a half-maximal effect (EC50) in test [1] is over 1000 nM. Also, the “MIC Streptococcus pneumoniae (ATCC 49619)” value (“MIC Streptococcus pneumoniae” for short) in test [2] is “C (4-32 is C)”. Moreover, the “MIC Staphylococcus aureus, MRSA (ATCC 33591)” value (shortened to “MIC Staphylococcus aureus”) in test [3] is listed as “B (0.5-2 is B)”.
On to `CCCCNC(=O)CC[C@]1(C)C[C@@H](OC(=O)COc2ccc3c(c2F)B(O)OC3)[C@]2(C)[C@H](C)CC[C@]3(CCC(=O)[C@H]32)[C@@H](C)[C@@H]1O` [Compound 5, (3aR,4R,5R,7R,8S,9R,9aS,12R)-7-(3-(butylamino)-3-oxopropyl)-8-hydroxy-4,7,9,12-tetramethyl-3-oxodecahydro-4,9a-propanocyclopenta[8]annulen-5-yl2-((7-fluoro-1-hydroxy-1,3-dihydrobenzo[c][1,2]oxaborol-6-yl)oxy)acetate], for which the EC50 in test [1] worked out at 305 nM. Also, the “MIC Streptococcus pneumoniae” value in test [2] is reported as “B (0.5-2 is B)”. Moreover, in test [3], the “MIC Staphylococcus aureus” value is recorded as “B (0.5-2 is B)”.
For the compound `CNC[C@H](O)[C@]1(C)C[C@@H](OC(=O)COc2ccc3c(c2F)B(O)OC3)[C@]2(C)[C@H](C)CC[C@]3(CCC(=O)[C@H]32)[C@@H](C)[C@@H]1O` [Compound 28, (3aR,4R,5R,7R,8S,9R,9aS,12R)-8-hydroxy-7-((R)-1-hydroxy-2-(methylamino)ethyl)-4,7,9,12-tetramethyl-3-oxodecahydro-4,9a-propanocyclopenta[8]annulen-5-yl2-((7-fluoro-1-hydroxy-1,3-dihydrobenzo[c][1,2]oxaborol-6-yl)oxy)acetate], the EC50 in test [1] is over 1000 nM. Also, the “MIC Streptococcus pneumoniae” value in test [2] is given as “D (≥64 is D)”. Besides, the “MIC Staphylococcus aureus” value in test [3] is on record as “D (≥64 is D)”.
